Legend:
M. abscessus [1] = test: Intrapulmonary aerosol M. abscessus infection in GM-CSF KO mice, lung CFU determination; assay type: in vivo, Mycobacterium abscessus; details: for Log10 CFU count After 4 weeks: GM-CSF KO mice, lungs, 5 days a week for 4 weeks, at start 4.80, untreated 3.93
[2] = in vivo, cited from earlier work
[3] = in vivo; cited from earlier work
M. abscessus [4] = details: cited from earlier work
[5] = rat, in vivo; cited from earlier work
[6] = tested on: M. abscessus and M. chelonae infections; details: cited from earlier work
[7] = cited from earlier work

## CN(C)c1cc(NC(=O)CNC(C)(C)C)c(O)c2c1C[C@H]1C[C@H]3[C@H](N(C)C)C(O)=C(C(N)=O)C(=O)[C@@]3(O)C(O)=C1C2=O [tigecycline]
M. abscessus [1]; 2.5 mg cohorts, 9 out of 10 mice, 4 weeks
  bacterial colonies after culturing lung tissue: no bacterial colonies were visible
M. abscessus [1]; 2.5 mg cohorts, one mouse with abscess formation, 4 weeks
  log 10 CFU count of the mouse with incomplete response: 0.5 log 10 CFU
M. abscessus [1]; inhaled 0.25 mg/dose
  Log10 CFU count After 4 weeks: 3.28 Log10 CFU
M. abscessus [1]; inhaled 1.25 mg/dose
  Log10 CFU count After 4 weeks: 0.695 Log10 CFU
M. abscessus [1]; inhaled 2.5 mg/dose
  Log10 CFU count After 4 weeks: 0.50 Log10 CFU
[2]; human
  half-life: 36 h
[2]
  excreted unchanged in the urine: not more than 15%
  volume of distribution: > 10 L/kg
[3]
  dose at which gastrointestinal adverse events were dose limiting: 300 mg
  nausea, share of tigecycline recipients: 48.5%
  vomiting, share of tigecycline recipients: 29.4%
M. abscessus [4]; at 200 mg/day, short-term inhibitory effect
  log kill of M. abscessus: 1 log kill
M. abscessus [4]; at higher doses
  maximum microbial kill: 1.37 log10 CFU/mL
[5]
  penetration into tissues: good penetration into tissues
[6]; human, in vivo, iv
  cases with adverse events reported: about 90%
  patients with serious adverse events: 29 out of 52
[6]; human, in vivo
  patients who stopped tigecycline therapy early because of adverse events: 27%
[6]; intravenous 100 mg then 50 mg every 12 h, part of a multidrug regimen
  patients with improvement: about 60%
[7]
  Protein binding: approximately 68%

Source: patent US20220233555A1, “Improved administration of glycylcyclines by inhalation” (Stichting Radboud universitair medisch centrum, priority 2019, published 2022)
